Our source for the GI50 and TGI values is PubChem BioAssay (NCI).

In this assay the test system is P388 leukemia. Put plainly: NCI tumour cell line growth inhibition, 48 h.

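These data come from cells grown in 96-well plates and exposed to compound for 48 hours at five concentrations. The concentration for 50% growth inhibition is given as GI50. TGI marks complete inhibition of growth.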 Some results are limits rather than exact numbers.

Consider `CCc1ccc([O-])c(C=NCCCN(C)CCCN=Cc2cc(C)ccc2[O-])c1.[Co+3].[N-]=[N+]=[N-]`, for which the GI50 is 145 mg/L and the TGI was above 150 mg/L.
